{
  "source": "patent US20130202698A1",
  "about": "(NANJING SANHOME PHARMACEUTICAL CO., LTD., priority 2005, published 2013)",
  "key": {"[1]": {"system": "motor balance and coordination", "settings": "both, mouse, in vivo, 3 mg/kg"}, "[2]": {"system": "spontaneous activities of mice", "settings": "both, mouse, in vivo, 3 mg/kg", "experimental": "Mice weighing 18-22 g, half male and half female, were placed in the laboratory 24 hours before the test to adapt to the environment. The room temperature was controlled at 24±2° C. Animals were fasted for 8 hours before testing, and then placed in a transparent cage. The number of spontaneous activities of mice was counted by an automatic device (model XZ-4 by Drug Research Institute of China Academy of Medical Sciences). Mice were pre-screened by counting their spontaneous activities for five minutes and unqualified mice were excluded. A total of 110 mice were selected and divided into 11 groups with 10 mice in each group.\nChlorpromazine (3 mg/kg) was used as the positive control. The dose volume was 0.2 mL/10 gram and infusion rate was 0.2 mL/10 seconds."}, "[3]": {"system": "righting reflex", "experiment": "Hypnotic effect, loss of righting reflex", "format": "in vivo", "settings": "mice, positive control, 40 mg/kg (Table 9), 10 animals"}, "[4]": {"system": "isoniazid-induced convulsion", "experiment": "Anticonvulsant effects on isoniazid-induced convulsion in mice", "format": "in vivo", "settings": "2 mg/kg, positive control, Mean ± SD, n=10", "protocol": "(§1) Mice are randomized into 4 treatment groups (n=10 with half male and half female): dextro- or levo-ornidazole (dosage 40, 80, 160 mg/kg), vehicle control group (15% propylene glycol in 0.9% sodium chloride, 20 mL/kg) and the positive control group. Animals are treated with known convulsion-inducing agents, followed by the drug or vehicle control given intravenously. The dose volume is 20 mL/kg with an infusion rate of 0.2 mL/10 seconds. The anticonvulsant effects are observed and recorded (see Tables 2-6)."}, "[5]": {"system": "thiosemicarbazide-induced convulsion", "experiment": "Anticonvulsant effects on thiosemicarbazide-induced convulsion in mice", "format": "in vivo", "settings": "2 mg/kg, positive control, n=10", "protocol": "as §1"}, "[6]": {"system": "Strychnine-induced convulsion", "experiment": "Anticonvulsant effects on Strychnine-induced convulsion in mice", "format": "in vivo", "settings": "2 mg/kg, positive control, n=10", "protocol": "as §1"}, "[7]": {"system": "Remefline-induced convulsion", "experiment": "Anticonvulsant effects on Remefline-induced convulsion in mice", "format": "in vivo", "settings": "2 mg/kg, positive control", "protocol": "In one experiment, the anticonvulsant effects of levo- and dextro-ornidazole against drug-induced convulsions in mice were compared. In four different animal convulsion models, mice were treated by four different seizure-inducing agents, including Remefline, Strychnine, isoniazid, thiosemicarbazide. Levo- or dextro-ornidazole was administered along with the seizure-inducing agents, and several outcomes were measured, including rate of convulsion, mortality rate, time to convulsion (latency), and time to death. Diazepam was used as a positive anticonvulsant control.\nas §1, with “seconds.” for “seconds. The anticonvulsant effects are observed and recorded (see Tables 2-6).”"}},
  "note": "Like-named read-outs stand apart in the source and are kept apart here. Marks after values point to notes of the source that are not given here.",
  "data": [
    {"smiles": "CN(C)CCCN1c2ccccc2Sc2ccc(Cl)cc21", "note": "[Chlorpromazine]", "values": [
      {"measurement": "Number of Animals Fall Off", "setting": "[1]; 0.5 h", "result": 10},
      {"measurement": "Number of Animals Fall Off", "setting": "[1]; 1 h", "result": 10},
      {"measurement": "Number of Animals Fall Off", "setting": "[1]; 2 h", "result": 10},
      {"measurement": "Number of Animals Fall Off", "setting": "[1]; 3 h", "result": 9},
      {"measurement": "Number of Animals Fall Off", "setting": "[1]; 4 h", "result": 5},
      {"measurement": "Spontaneous Activities (per 5 min)", "setting": "[2]; 0.5 h", "result": "5 ± 2", "unit": "per 5 min"},
      {"measurement": "Spontaneous Activities (per 5 min)", "setting": "[2]; 1 h", "result": "6 ± 4", "unit": "per 5 min"},
      {"measurement": "Spontaneous Activities (per 5 min)", "setting": "[2]; 2 h", "result": "13 ± 6", "unit": "per 5 min"},
      {"measurement": "Spontaneous Activities (per 5 min)", "setting": "[2]; 3 h", "result": "21 ± 9", "unit": "per 5 min"},
      {"measurement": "Spontaneous Activities (per 5 min)", "setting": "[2]; 4 h", "result": "35 ± 9", "unit": "per 5 min"}
    ]},
    {"smiles": "CCCC(C)C1(CC)C(=O)NC(=O)NC1=O", "note": "(stereo not shown) [Pentobarbital, Sodium pentobarbital]", "values": [
      {"measurement": "Number of animals Loss of Righting Flex 30 min Post-dose", "setting": "[3]", "result": "10**"}
    ]},
    {"smiles": "CN1C(=O)CN=C(c2ccccc2)c2cc(Cl)ccc21", "note": "[Diazepam]", "values": [
      {"measurement": "Convulsion Latency", "setting": "[4]", "result": "57.4 ± 9.7", "unit": "min"},
      {"measurement": "Time to Death", "setting": "[4]", "result": "79.0 ± 12.9", "unit": "min"},
      {"measurement": "Mortality Rate", "setting": "[5]", "result": "0/10**"},
      {"measurement": "Rate of Convulsion", "setting": "[5]", "result": "2/10**"},
      {"measurement": "Mortality Rate", "setting": "[6]", "result": "0/10**"},
      {"measurement": "Rate of Convulsion", "setting": "[7]; n=10", "result": "0/10**"},
      {"measurement": "Mortality Rate", "setting": "[7]; n=10, 2 mg/kg", "result": "0/10**"},
      {"measurement": "Mortality Rate", "setting": "[7]; n=10, listed as diazepam", "result": "0/10"}
    ]}
  ]
}
